Drawing on US20080146555A1, “Uses of Kinase Inhibitors and Compositions Thereof” (GPC Biotech, Inc, priority 2004, published 2008), this text covers IC50 for two molecules.

As a reminder, the IC50 is the concentration at which inhibition is half-maximal.

Where a name gives a salt, the structure may show the parent alone. Read-outs that look alike come from different tables or passages of the source.

One assay addresses T1, Abl (c-Abl) (Homo sapiens, UniProt P00519).
T1 construct: purchased Upstate 14-529
In words: Abl kinase assay. Type of assay: biochemical. The procedure:
• 1. 5× Reaction Buffer: 40 mM MOPS, pH 7.0, 1 mM EDTA. • 2. Enzyme Dilution Buffer (EDB): 20 mM MOPS, pH 7.0, 1 mM EDTA, 0.01% Brij-35, 5% glycerol, 0.1% β-mercaptoethanol, 1 mg/ml BSA. • 3. Abl, active: Dilute to 0.2-8 ng/μl with EDB. Use 2.5-μl per assay point. • 4. […] Use 2.5 μl per assay point for a final assay concentration of 50 μM per assay point. • 5. [γ-^32P]ATP: Stock 1 mCi/100 μl (3000 Ci/mmol, obtained from PerkinElmer, Cat. # BLU002A). Make 10 μl aliquots (100 μCi/vial).
• 1. Add 5 μl of 5× Reaction Buffer per assay. • 2. Add 2.5 μl of Abltide (50 μM). • 3. Add 2.5 μl of Abl (human), active (0.5-20 ng). • 4. Add 5 μl sterile, distilled water. • 5. Add 10 μl of the diluted [γ-^32P]ATP solution. • 6. Incubate for 10 minutes at 30° C. • 7. Transfer a 20 μl aliquot onto the center of a 2 cm×2 cm P81 paper. • 8. […] Wash the assay squares once for 5 minutes with acetone. • 10. Transfer the assay squares to vial and add 5 ml scintillation cocktail. • 11. Read in scintillation counter. Compare cpm of enzyme samples to cpm of control samples that contain background control.

The target in the next assay is T2, JNK1α1 (Homo sapiens, UniProt P45983).
T2 construct: purchased Upstate 14-327
T2 sequence (P45983 1-384 isoform P45983-2, species assumed): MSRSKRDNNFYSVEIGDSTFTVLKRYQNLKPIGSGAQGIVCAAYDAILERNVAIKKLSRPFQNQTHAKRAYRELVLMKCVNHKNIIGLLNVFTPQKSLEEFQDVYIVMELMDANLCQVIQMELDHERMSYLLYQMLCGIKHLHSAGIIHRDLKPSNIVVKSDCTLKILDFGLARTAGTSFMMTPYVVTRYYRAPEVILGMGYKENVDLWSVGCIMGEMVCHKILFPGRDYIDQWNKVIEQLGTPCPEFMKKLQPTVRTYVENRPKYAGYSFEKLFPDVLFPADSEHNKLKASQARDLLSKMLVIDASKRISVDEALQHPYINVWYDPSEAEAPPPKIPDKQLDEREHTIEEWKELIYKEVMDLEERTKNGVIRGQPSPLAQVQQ
In words: JNK1α1 kinase assay. Type of assay: biochemical. The procedure: • 1. 10× Reaction Buffer: 500 mM Tris-HCl pH 7.5, 1 mM EGTA, 1% 2-mercaptoethanol. • 2. Enzyme Dilution Buffer (EDB): 50 mM Tris-HCl pH 7.5, 0.1 mM EGTA, 0.1% 2-mercaptoethanol, 1 mg/ml BSA. • 3. JNK 11/SAPK1c, active: Dilute to 0.4-8 ng/μl with EDB. Use […] per assay point. • 4. ATF2 (amino acids 19-96) (Catalog #12-367): Prepare a 1.08 mg/ml stock. Use 2.5 μl per assay point for a final concentration of 3 μM per assay point. • 5. Magnesium/ATP Cocktail (Catalog #20-113): 75 mM MgCl2 and 500 μM ATP in 20 mM MOPS, pH 7.2, 25 mM β-glycerol phosphate, 5 mM EGTA, 1 mM sodium orthovanadate, 1 mM dithiothreitol. • 6. [γ-^32P]ATP: Stock 1 mCi/100 μl (3000 Ci/mmol, obtained from PerkinElmer, Cat. # BLU002A). Make 10 μl aliquots (100 μCi/vial). Before starting the assay, dilute an aliquot to 1 μCi/μl with 90 μl of Magnesium/ATP Cocktail diluted 1:2 with sterile, distilled water. […]
• 1. Add 2.5 μl of 10× Reaction Buffer per assay. • 2. Add 2.5 μl of ATF2 (amino acids 19-96). • 3. Add 2.5 μl (1-20 ng) JNK1α1/SAPK1c, active. • 4. Add 7.5 μl of sterile, distilled water. • 5. Add 10 μl of the diluted [γ-^32P]ATP mixture. • 6. Incubate for 10 minutes at 30° C. • 7. Transfer a 20 μl aliquot onto the center of a 2 cm×2 cm P81 paper. • 8. Wash the assay squares three times for 5 minutes with 0.75% phosphoric acid. • 9. Wash the assay squares once for 5 minutes with acetone. • 10. Transfer the assay squares to vial and add 5 ml scintillation cocktail. • 11. Read in scintillation counter. Compare cpm of enzyme samples to cpm of control samples that contain background control.

The target in a further assay is T3, Abl T315I (Homo sapiens, UniProt P00519, T315I).
T3 construct: purchased Upstate 14-522
In words: Abl T315I kinase assay. Type of assay: biochemical. The method, then:
• 1. 5× Reaction Buffer: 40 mM MOPS, pH 7.0, 1 mM EDTA. • 2. Enzyme Dilution Buffer (EDB): 20 mM MOPS, pH 7.0, 1 mM EDTA, 0.01% Brij-35, 5% glycerol, 0.1% β-mercaptoethanol, 1 mg/ml BSA. • 3. […] Use 2.5 μl per assay point. • 4. […] Use 2.5 μl per assay point for a final assay concentration of 50 μM per assay point. • 5. [γ-^32P]ATP: Stock 1 mCi/100 μl (3000 Ci/mmol, obtained from PerkinElmer, Cat. # BLU002A). Make 10 μl aliquots (100 μCi/vial).
• 1. Add 5 μl of 5× Reaction Buffer per assay. • 2. Add 2.5 μl of Abltide (50 μM). • 3. […] Add 5 μl sterile, distilled water. • 5. Add 10 μl of the diluted [γ-^32P]ATP solution. • 6. Incubate for 10 minutes at 30° C. • 7. Transfer a 20 μl aliquot onto the center of a 2 cm×2 cm P81 paper. • 8. […] Wash the assay squares once for 5 minutes with acetone. • 10. Transfer the assay squares to vial and add 5 ml scintillation cocktail. • 11. Read in scintillation counter. Compare cpm of enzyme samples to cpm of control samples that contain background control.

The test system of the next assay is CEM. Description: SRB cytotoxicity, CEM parental cells. Type of assay: cell-based. The conditions noted are these: Homo sapiens, CCRF-CEM, 72 h. The procedure: (§1) In these experiments, the P-glycoprotein expressing NCI-Adr resistant subline (Vickers et al., 1989. Mol Endocrinology 3 (1):157-164) was used. […] Briefly, cells were plated in 96 well dishes 24 hours prior to compound addition. Where noted, they were exposed to verapamil for 4 hours prior to compound addition and then throughout the treatment period (72 hours). The assay was terminated with the addition of cold TCA to a final concentration of 10% and the plates were incubated for one hour at 4° C. The plates were then washed 5 times with water and 100 μl of a Sulforhodamine B solution (4%) was added to each well. The plate was then incubated for 10 minutes at room temperature before removal of unbound dye by washing with 1% acetic acid.
The Camptothecin resistant CEM/C2 cells were derived from the T lymphoblastoid leukemia cell line CCRF/CEM by selection in the presence of Camptothecin in vitro (Kapoor et al., 1995. Oncology Research 7; 83-95, ATCC).
The effects of A37 and B16 were evaluated in the CCRF/CEM and CEM/C2 cells using the same SRB assay as described above, with 72-hour drug exposure.

Another assay relates to A129. Description: SRB cytotoxicity, A129 parental cells. Type of assay: cell-based, human. As to conditions: Homo sapiens, 72 h. The procedure:
as §1
The parental non-mutated cell line A129 was used as a control.

[1] abbreviates: Table II, read-out: ABL1 Inhibition (IC50).
The mark [2] stands for this setting: read-out: Abl (wild-type c-Abl) IC50.
[3] abbreviates: kinase panel, 10 μM ATP, read-out: JNK1α1 IC50.
Setting [4] is: read-out: MAPK8 Inhibition (IC50).
[5] abbreviates: read-out: Inhibition (IC50), Table II (accession U07563, no symbol).

On to `COCCN1CCN(Cc2ccc(-c3n[nH]c4c3C(=O)c3c(NC(=O)NN5CCOCC5)cccc3-4)cc2)CC1` [Compound B16, N-[3-(4-{[4-(2-methoxyethyl)piperazinyl]methyl}phenyl)-4-oxoindeno[2,3-d]pyrazol-5-yl](morpholin-4-ylamino)carboxamide dihydrochloride], for which the 50% inhibitory concentration (IC50) is 52 nM at Abl (c-Abl) (Table AA, read-out: Abl IC50); < 100 nM at Abl (c-Abl) (setting [1]); < 100 nM on Abl (c-Abl) (setting [2]); < 100 nM at JNK1α1 (setting [3]); < 100 nM at JNK1α1 (setting [4]); ~100 nM at Abl T315I (read-out: Abl T315I IC50). The figures for the IC50 at Abl T315I (setting [5]), in the assay with CEM and in the assay with A129 were < 100 nM, 25 nM and 8.7 nM, respectively.
`CC(C)N1CCN(C(=O)COc2ccc(-c3n[nH]c4c3C(=O)c3c(NC(=O)NN5CCOCC5)cccc3-4)cc2)CC1` [Compound A37]: the IC50 is 35 nM on Abl (c-Abl) (Table AA, read-out: Abl IC50); < 50 nM at Abl (c-Abl) (setting [1]); < 50 nM at Abl (c-Abl) (setting [2]); 10 to 100 nM on JNK1α1 (setting [3]); < 50 nM on JNK1α1 (setting [4]); 87 nM on Abl T315I (read-out: Abl T315I IC50). Further, the figures for the IC50 at Abl T315I (setting [5]), in the assay on CEM and with A129 were < 100 nM, 21.3 nM and 5.7 nM, respectively.
